From article PMC3671111, “A Phase I, open-label, randomized, crossover study in three parallel groups to evaluate the effect of Rifampicin, Ketoconazole, and Omeprazole on the pharmacokinetics of THC/CBD oromucosal spray in healthy volunteers” (SpringerPlus, 2013)
Where “and” joins values, the source holds several entries; their conditions need not be identical. Identical values can stand only once. Like-named read-outs stand apart in the source and are kept apart here. Marks after values point to notes of the source that are not given here.

Experiments:
[1] = male, human, in vivo
[2] = Phase I drug-drug interaction PK, Group 3: THC/CBD spray alone or with omeprazole, plasma by GC-MS; conditions: for AUC(0-inf) / AUC(0-t) / CL/F / Cmax / Kel / Varea/F / t½ / Tmax: n = 12, plasma; for AUC(0-inf) / AUC(0-t) / CL/F / Cmax / Kel / Varea/F / t½: mean (SD); for Tmax: median (range); for Cmax and AUC % Co-efficient of Variation (CV%) range: inter-subject variability
Method: (§1) Subjects received rifampicin on Days 1-9. […] Subjects received ketoconazole on Days 1-4.
(§2) Blood samples were collected at specified times and stored on ice (except rifampicin PK samples which were stored in iced water) prior to processing and storage. Plasma samples were separated by centrifugation (approximately 2500 rpm × 15 minutes at 4°C). Samples were stored in 4 mL amber glass screw top glass vials with PTFE lined screw caps labelled with Guys Drug Research (Quintiles Limited) labels. The aliquots were stored in clearly labelled containers in a freezer set at or below -20°C, until shipped for assay. Samples were shipped on dry ice at the appropriate time-points.
(§3) The assay validation was undertaken by Advanced Bioanalytical Service Laboratories (London, UK), who developed the technique after reviewing the literature, which was based on the methodology adopted by three different groups (Foltz et al. [1983]; Goodall & Basteyns [1995]; Kemp et al. [1995]), and designed with reference to FDA guidelines for industry (FDA Guidance for Industry [2012]). The method utilised protein precipitation, solvent extraction and derivatisation for the sample preparation and then sample analysis by capillary gas chromatography and detection by a mass spectrometer (GC-MS). The validation procedure investigated the calibration model with the best regression fit over the concentration range 0.1 - 100 ng/mL for CBD, THC and 11-OH-THC, as well as precision and accuracy of the method, stability, carry-over, and specificity.
(§4) Human plasma from healthy volunteers was used to prepare the standards and quality control (QC) samples, with analytes extracted using hexane/ethyl acetate (7:1 ratio), derivatised with N,O-Bis(trimethylsilyl)trifluoroacetamide. Analytic grade THC (Sigma, UK), CBD (Sigma, UK) and 11-OH-THC (Radian International and Cerillant, UK) were obtained, and three sets of CBD, THC and 11-OH-THC were used to support the study. Deuterated THC-d3 (Sigma, UK) was used as the internal standard. The GC-MS equipment was a Hewlett Packard 6890 Gas Chromatograph attached to a Hewlett Packard 5973 Mass Selective Detector. Data handling was carried out using an MS Chemstation System and the peak area ratio of the analytes to the internal standard was calculated in Excel (2000). The concentrations were calculated from the ratio data using least squares ln(y) on ln(x) regression performed in Excel (2000), and were then checked manually. Regression analysis was undertaken to find the regression model that best described the calibration data (for details, see ([Miller & Miller 1992])).
(§5) A 0.5 mL aliquot of test sample, QC or blank plasma was placed into a test tube. The blank plasma was spiked with 50 μL of the appropriate standard solution to produce the calibration standards. 50 μL of the internal standard was added to each test tube. The samples were then diluted by the addition of 500 μL of 0.1% (w/v) ascorbic acid and the protein precipitated by the addition of 1.0 mL of acetonitrile. The proteins were removed by centrifugation and the supernatant concentrated to 1 mL using nitrogen at 50 °C. The samples were then basified by the addition of 300 μL of 5M sodium hydroxide and the analytes extracted by the addition of 2.0 mL of 7:1 hexane:ethyl acetate. After mixing for 16 minutes the tubes were centrifuged and the top layer transferred into clean 3 dram vials. The solvent was removed using nitrogen at 70 °C and the dried extract resuspended in 100 μL of BSTFA and transferred to microvials, capped and placed at 70 °C for 30 minutes to derivatise the analytes. The microvials were then cooled and loaded onto the autosampler tray for analysis where 1 μL was injected onto the GC-MS system.

[3] = Phase I drug-drug interaction PK, Group 2: THC/CBD spray alone or with ketoconazole, plasma by GC-MS; conditions: for AUC(0-inf) / AUC(0-t) / CL/F / Cmax / Kel / Varea/F / t½ / Tmax: plasma; for AUC(0-inf) / AUC(0-t) / CL/F / Cmax / Kel / Varea/F / t½: mean (SD); for Tmax: median (range)
Method: as §1, §2, §3, §4, §5

[4] = Phase I drug-drug interaction PK, Group 1: THC/CBD spray alone or with rifampicin, plasma by GC-MS; conditions: for AUC(0-inf) / AUC(0-t) / CL/F / Cmax / Kel / Varea/F / t½ / Tmax: n = 12, plasma; for AUC(0-inf) / AUC(0-t) / CL/F / Cmax / Kel / Varea/F / t½: mean (SD); for Tmax: median (range)
Method: as §1, §2, §3, §4, §5

[5] = Omeprazole and THC/CBD spray vs THC/CBD spray alone, no-interaction range 0.80 to 1.25
[6] = THC/CBD spray 4 sprays and omeprazole 40 mg at end of 6-day dosing period
[7] = THC/CBD spray alone, single dose 4 sprays (10.8/10 mg), omeprazole group
[8] = THC/CBD spray co-administered with omeprazole vs alone
[9] = Ketoconazole and THC/CBD spray vs THC/CBD spray alone, no-interaction range 0.80 to 1.25
[10] = THC/CBD spray 4 sprays and ketoconazole 400 mg at end of 5-day dosing period, n = 11
[11] = THC/CBD spray alone, single dose 4 sprays (10.8/10 mg), ketoconazole group, n = 12
[12] = THC/CBD spray co-administered with ketoconazole vs alone
[13] = Rifampicin and THC/CBD spray vs THC/CBD spray alone, no-interaction range 0.80 to 1.25
[14] = THC/CBD spray 4 sprays and rifampicin 600 mg after repeated daily dosing
[15] = THC/CBD spray alone, single dose 4 sprays (10.8/10 mg), rifampicin group
[16] = THC/CBD spray co-administered with rifampicin vs alone

With `COc1ccc2[nH]c([S+]([O-])Cc3ncc(C)c(OC)c3C)nc2c1` (stereo not drawn) [Omeprazole, omeprazole] as the compound, how does the “Dizziness (TEAE)” value ([1]; 5 days) read?
Its value is 0 No. of subjects (%).

And the “Dizziness postural (TEAE)” value ([1]; 5 days)?
Its value is 0 No. of subjects (%).

What about the “Dry mouth (TEAE)” value ([1]; 5 days) of the same compound?
The value was 0 No. of subjects (%).

What about the “Headache (TEAE)” value ([1]; 5 days) of the same compound?
Its value is 1 (8) No. of subjects (%).

And the “Somnolence (TEAE)” value ([1]; 5 days)?
The value was 0 No. of subjects (%).

With `CO[C@H]1/C=C/O[C@@]2(C)Oc3c(C)c(O)c4c(O)c(c(/C=N/N5CCN(C)CC5)c(O)c4c3C2=O)NC(=O)/C(C)=C\C=C\[C@H](C)[C@H](O)[C@@H](C)[C@@H](O)[C@@H](C)[C@H](OC(C)=O)[C@@H]1C` [Rifampicin, rifampicin] as the compound, how does the “Dysgeusia (TEAE)” value ([1]; 9 days) read?
Its value is 1 (8) No. of subjects (%).

And the “Headache (TEAE)” value ([1]; 9 days)?
The value was 0 No. of subjects (%).

And the “Somnolence (TEAE)” value ([1]; 9 days)?
The value was 0 No. of subjects (%).

What does the source list for `CCCCCc1cc(O)c2c(c1)OC(C)(C)[C@@H]1CCC(C)=C[C@@H]21` [THC, Δ9-tetrahydrocannabinol]?
Geometric mean ratio of AUC(0-inf), point estimate [2, 5]: 0.962; Geometric mean ratio of AUC(0-t), point estimate [2, 5]: 0.964; Geometric mean ratio of Cmax, point estimate [2, 5]: 1.125; AUC(0-inf) [2, 6]: 8.10 (4.78) h*ng/mL; AUC(0-t) [2, 6]: 7.41 (4.75) h*ng/mL; CL/F [2, 6]: 2284 (2520) L/h; Cmax [2, 6]: 2.48 (1.06) ng/mL; Kel [2, 6]: 0.357 (0.218) h^-1; Varea/F [2, 6]: 6052 (3384) L; t½ [2, 6]: 2.37 (0.92) h; Tmax [2, 6]: 1.25 (1.00-1.75) h; AUC(0-inf) [2, 7]: 9.39 (8.81) h*ng/mL; AUC(0-t) [2, 7]: 8.76 (8.62) h*ng/mL; CL/F [2, 7]: 2161 (1990) L/h; Cmax [2, 7]: 2.50 (1.85) ng/mL; Kel [2, 7]: 0.305 (0.109) h^-1; Varea/F [2, 7]: 6889 (5296) L; t½ [2, 7]: 2.65 (1.25) h; Tmax [2, 7]: 1.25 (0.77-3.02) h; Plasma concentrations and PK parameters compared with THC/CBD spray alone ([2]; THC/CBD spray at end of 6-day omeprazole dosing): similar; % change in Tmax [2, 8]: 0%; % change in t1/2 [2, 8]: -11%; Differences in CL/F on co-administration with omeprazole ([2]; THC/CBD spray with omeprazole vs alone): No significant differences; Substrate for the isoenzyme CYP2C19 (conclusion from omeprazole interaction) ([2]; at the clinically relevant dose of THC/CBD spray investigated): not substrates; Cmax and AUC % Co-efficient of Variation (CV%) range ([2]; THC/CBD spray alone, omeprazole group): 74-98%; Cmax and AUC % Co-efficient of Variation (CV%) range ([2]; THC/CBD spray in combination with omeprazole): 43-64%; Geometric mean ratio of AUC(0-inf), point estimate [3, 9]: 1.840; Geometric mean ratio of AUC(0-t), point estimate [3, 9]: 1.770; Geometric mean ratio of Cmax, point estimate [3, 9]: 1.252; AUC(0-inf) [3, 10]: 16.76 (13.80) h*ng/mL; AUC(0-t) [3, 10]: 15.38 (13.43) h*ng/mL; CL/F [3, 10]: 920 L/h and 920 (450) L/h; Cmax [3, 10]: 3.36 (1.65) ng/mL; Kel [3, 10]: 0.189 (0.078) h^-1; Varea/F [3, 10]: 5111 (2221) L; t½ [3, 10]: 4.43 (2.19) h; Tmax [3, 10]: 1.75 (1.00-3.00) h; AUC(0-inf) [3, 11]: 9.22 (5.94)^a h*ng/mL; AUC(0-t) [3, 11]: 8.19 (5.67) h*ng/mL; CL/F [3, 11]: 1504 L/h and 1504 (688)^a L/h; Cmax [3, 11]: 2.65 (1.32) ng/mL; Kel [3, 11]: 0.258 (0.092)^a h^-1; Varea/F [3, 11]: 6328 (4164)^a L; t½ [3, 11]: 3.07 (1.31)^a h; Tmax [3, 11]: 1.50 (0.75-6.00) h; % change in mean Tmax [3, 12]: +17%; % change in t1/2 [3, 12]: +44%; Change in mean Cmax ([3]; THC/CBD spray with ketoconazole vs THC/CBD spray alone): +27%; Change in mean CL/F ([3]; co-administered with ketoconazole vs THC/CBD spray alone): -39%; Substrate for the isoenzyme CYP3A4 (conclusion from ketoconazole interaction) ([3]; suggested by increased exposure with ketoconazole): substrates; Geometric mean ratio of AUC(0-inf), point estimate [4, 13]: 0.761; Geometric mean ratio of AUC(0-t), point estimate [4, 13]: 0.711; Geometric mean ratio of Cmax, point estimate [4, 13]: 0.614; AUC(0-inf) [4, 14]: 7.53 (2.99) h*ng/mL; AUC(0-t) [4, 14]: 6.53 (2.70) h*ng/mL; CL/F [4, 14]: 1595 L/h and 1595 (473) L/h; Cmax [4, 14]: 1.88 (1.07) ng/mL; Kel [4, 14]: 0.189 (0.071) h^-1; Varea/F [4, 14]: 10297 (5888) L; t½ [4, 14]: 4.93 (3.91) h; Tmax [4, 14]: 1.75 (1.25-2.57) h; AUC(0-inf) [4, 15]: 9.86 (3.35)^a h*ng/mL; AUC(0-t) [4, 15]: 9.10 (2.98) h*ng/mL; CL/F [4, 15]: 1207 L/h and 1207 (373)^a L/h; Cmax [4, 15]: 2.94 (1.21) ng/mL; Kel [4, 15]: 0.197 (0.093)^a h^-1; Varea/F [4, 15]: 7625 (4326)^a L; t½ [4, 15]: 4.68 (3.42) ^a h; Tmax [4, 15]: 1.01 (0.50-6.02) h; % change in mean t1/2 [4, 16]: +5%; % change in median Tmax [4, 16]: +73%; Change in mean Cmax ([4]; THC/CBD spray with rifampicin vs THC/CBD spray alone): -36%; Change in mean CL/F ([4]; after multiple dose rifampicin treatment vs THC/CBD spray alone): +32%
